Laboratory results taken from ChEMBL document CHEMBL5233242, “Dihydrofolate reductase inhibitors for use as antimicrobial agents” (Eur J Med Chem, 2020).
≈ marks a conversion by molar mass, not a printed value.

Key:
[1] = system: Mycobacterium tuberculosis; assay: Antibacterial activity against extensively drug-resistant Mycobacterium tuberculosis 5; type: functional
[2] = system: Mycobacterium tuberculosis; assay: Antibacterial activity against multi drug-resistant Mycobacterium tuberculosis 365; type: functional

Structure (SMILES) | MIC [1] | MIC [2]
CCc1nc(N)nc(N)c1C#C[C@H](C)c1cc(OC)cc(-c2ccc(C(=O)O)cc2)c1 | 0.6 µM (≈ 0.25 µg/mL) | < 0.072 µM
CCc1nc(N)nc(N)c1C#CCc1cc(OC)cc(-c2ccc(C(=O)O)cc2)c1 | 4.97 µM (≈ 2 µg/mL) | 0.311 µM (≈ 0.125 µg/mL)
